Reference: PubChem BioAssay (NCI)
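Tested at 5 concentrations; 48 h exposure; 96-well plates; endpoints linearly interpolated, else capped at highest concentration. GI50: concentration for 50% inhibition of growth. TGI is the concentration that stops growth completely.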

Legend:
Test in all cases: inhibition of tumour cell growth, NCI panel, 48 h
HL-60(TB) leukemia = test system: HL-60(TB) leukemia
A549 NSCLC = test system: A549 NSCLC
NCI-H522 lung = test system: NCI-H522 lung
SK-OV-3 ovarian = test system: SK-OV-3 ovarian
SNB-19 CNS = test system: SNB-19 CNS
OVCAR-8 ovarian = test system: OVCAR-8 ovarian
HT29 colon = test system: HT29 colon
U251 CNS = test system: U251 CNS
HCT-116 colon = test system: HCT-116 colon
HCC-2998 colon = test system: HCC-2998 colon

| SMILES | TGI (HL-60(TB) leukemia) [µM] | TGI (A549 NSCLC) [µM] | TGI (NCI-H522 lung) [µM] | TGI (SK-OV-3 ovarian) [µM] | TGI (SNB-19 CNS) [µM] | TGI (OVCAR-8 ovarian) [µM] | TGI (HT29 colon) [µM] | TGI (U251 CNS) [µM] | TGI (HCT-116 colon) [µM] | GI50 (HL-60(TB) leukemia) [µM] | GI50 (A549 NSCLC) [µM] | GI50 (NCI-H522 lung) [µM] | GI50 (HCT-116 colon) [µM] | GI50 (SK-OV-3 ovarian) [µM] | GI50 (SNB-19 CNS) [µM] | GI50 (OVCAR-8 ovarian) [µM] | GI50 (HT29 colon) [µM] | GI50 (U251 CNS) [µM] | TGI (HCC-2998 colon) [µM] | GI50 (HCC-2998 colon) [µM] |
| --- | --- | --- | --- | --- | --- | --- | --- | --- | --- | --- | --- | --- | --- | --- | --- | --- | --- | --- | --- | --- |
| NC(N)=NS(=O)(=O)c1ccc(NC(=O)c2ccc(Cl)c3c(Nc4ccc(S(=O)(=O)N=C(N)N)cc4)c4ccccc4nc23)cc1 | > 100 | > 100 | > 100 | > 100 | > 100 | > 100 | > 100 | > 100 |  |  |  |  |  |  |  |  |  |  |  |  |
| CC(C)c1cccc2sc(NC(=O)C(=O)CC(=O)c3ccc(F)cc3)nc12 | > 100 | > 100 | > 100 | > 100 | > 100 | > 100 | > 100 | > 100 | > 100 |  |  |  |  |  |  |  |  |  |  |  |
| CC(C)(C)OC(=O)N(CCCn1c2c(c3ccccc3c1=O)C(=O)c1ccccc1-2)CCN(CCCn1c2c(c3ccccc3c1=O)C(=O)c1ccccc1-2)C(=O)OC(C)(C)C | > 50 | > 50 | > 50 | > 50 | > 50 | > 50 | > 50 | > 50 | > 50 | > 50 | 25.4 | 21.3 | 14.1 | > 50 | 37.8 | 24.6 | > 50 | 15.5 |  |  |
| CC(=O)N1C(=O)C(=O)c2cc(Cl)ccc21 | > 100 | > 100 |  | > 100 | > 100 | > 100 | > 100 | > 100 |  |  |  |  |  |  |  |  |  |  | > 100 |  |
| S=C(S)NCCCn1ccnc1 | > 100 | > 100 | > 100 | > 100 | > 100 | > 100 | > 100 | > 100 | > 100 |  |  |  |  |  |  |  |  |  |  |  |
| COc1ccc(CNCCCN2C(=O)c3ccc4c5c(ccc(c35)C2=O)C(=O)N(CCCNCCCCNCCCN)C4=O)c(OC)c1OC | 13.1 | 16.1 |  | 83.2 | 11.4 | 8.2 | 3.23 | 2.97 | 3.77 | 2.73 | 1.69 |  | 0.534 | 3.18 | 1.42 | 0.618 | 0.452 | 0.63 | 4.79 | 1.67 |
| C[C@]1(O)CC(=O)[C@]2(O)C3=C(C=C[C@]2(O)C1)C(=O)c1c(O)cccc1C3=O | 4.5 | 38.6 |  | 42 | 26.5 | 7.75 | > 100 | 21.5 | 2.56 | 2.05 | 16.3 |  | 0.649 | 17.5 | 13.6 | 2.67 | 3.26 | 6.02 | 20.7 | 7.59 |
| COc1cc2c(C#N)n3c(c2cc1OC)C(=O)C(c1ccccc1)Oc1ccccc1-3 (centres undefined) |  | > 100 |  | > 100 | > 100 | > 100 |  | > 100 | > 100 |  | 2.87 |  | 3.23 | 21.1 | 3.53 | 2.76 |  | 2.77 | > 100 | > 100 |
| CCCC(=O)C(CC)/C(CCC(=O)N(Cc1ccccc1)Cc1ccccc1)=N/NC(=O)C[N+](C)(C)C (centres undefined) | > 100 | > 100 | > 100 | > 100 | > 100 | > 100 | > 100 | > 100 | > 100 |  |  |  |  |  |  |  |  |  |  |  |
| COC(=O)/C1=C/C2CC(/C=C(/c3ccccc3)C(=O)O1)C2 | 60.6 | > 100 | 37.9 | 72.9 | > 100 | 80.6 | 65.4 | 49.3 | 56.6 |  |  |  |  |  |  |  |  |  |  |  |
| C=CC1(C)/C(=N\O)C(C)(CC)C(=O)N1O (centres undefined) | > 100 | > 100 | > 100 | > 100 | > 100 | > 100 | > 100 | > 100 | > 100 |  |  |  |  |  |  |  |  |  |  |  |
| CN1C(=O)NC2(O)c3ccccc3C(=O)C12O (centres undefined) | > 100 | > 100 | > 100 | > 100 | > 100 | > 100 | > 100 | > 100 | > 100 |  |  |  |  |  |  |  |  |  |  |  |
| c1ccc2c(c1)[Se]c1ccccc1[Se]2 | > 100 | > 100 | > 100 | > 100 | > 100 | > 100 | > 100 | > 100 | 72.4 |  |  |  |  |  |  |  |  |  |  |  |
| S=C1SC2(CCCCCC2)NC2=C1CCCCC2 | 38.5 | > 100 |  | > 100 | 87.5 | > 100 | > 100 | > 100 | > 100 |  |  |  |  |  |  |  |  |  | > 100 |  |
| c1ccc(CN2CCC3(CC2)ONC2=NCCN23)cc1 | > 100 | > 100 | > 100 | > 100 | > 100 | > 100 | > 100 | > 100 | > 100 | 35.4 | 88.4 | 37.8 | 49.1 | 60.8 | > 100 | 60.9 | 61.4 | 60.1 |  |  |
